Where “and” joins values, the source holds several entries; their conditions need not be identical. Equal values may be shown once.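 96-well plates; 48 h exposure; 5 concentrations. Endpoints by linear interpolation between flanking doses. Not reached: highest tested concentration assigned. Abbreviation: GI50, concentration required for 50% inhibition of growth. Definition used: TGI = concentration required for complete inhibition of growth.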
Assays:
Assay in all cases: NCI tumour cell line growth inhibition, 48 h
[1] = tested on: DMS 273 small cell lung
[2] = tested on: HCT-116 colon
[3] = tested on: HT29 colon
[4] = tested on: M19-MEL melanoma
[5] = tested on: MALME-3M melanoma
[6] = tested on: NCI-H226 lung
[7] = tested on: SF-268 CNS
[8] = tested on: SNB-78 CNS
[9] = tested on: SR leukemia
[10] = tested on: SW-620 colon
[11] = tested on: HS 578T breast

Compound	TGI [1] [µM]	TGI [2]	TGI [3]	TGI [4] [µM]	TGI [5]	TGI [6]	TGI [7] [µM]	TGI [8] [µM]	TGI [9] [µM]	TGI [10] [µM]	GI50 [2] [µM]	GI50 [11] [µM]	GI50 [3] [µM]	GI50 [5]	GI50 [6] [µM]	GI50 [7] [µM]	GI50 [9] [µM]	GI50 [10] [µM]	TGI [11] [µM]
COC(=O)C1C=CCC2CCCCC21N1CCCC1 (centres undefined)	> 100	> 100 µM	> 100 µM	> 100	> 100 µM	> 100 µM	> 100	> 100	> 100	> 100	–	–	–	–	–	–	–	–	–
COc1ccc(-c2ccc(CC(=O)O)cc2)cc1OC	–	> 100 µM	> 100 µM	> 100	> 100 µM	> 100 µM	> 100	> 100	> 100	> 100	–	–	–	–	–	–	–	–	–
O=C1CC23CCCCCCCCCCC2(C1)CC(=O)C3 (centres undefined)	52.5	–	37.2 µM	48.4	76.1 µM	> 100 µM	> 100	–	56.5	> 100	–	–	–	–	–	–	–	–	–
Cn1c(=O)oc2cc(C3CCC(=O)N3Cc3csc(-c4ccccc4)n3)ccc21 (centres undefined)	> 100	> 100 µM	> 100 µM	> 100	> 100 µM	> 100 µM	> 100	> 100	> 100	> 100	–	–	–	–	–	–	–	–	–
N/N=C(/Cc1ccccc1)NNO	> 100	> 100 µM	> 100 µM	> 100	> 100 µM	> 100 µM	> 100	–	–	> 100	–	–	–	–	–	–	–	–	–
CC(=O)N1[C@H](C(=O)O)CS[C@H]1c1ccc(F)cc1	–	78.7 µM	> 100 µM	> 100	> 100 µM	> 100 µM	> 100	> 100	> 100	> 100	–	–	–	–	–	–	–	–	–
O=C(CC1=Nc2nnc(CCCCCCCc3nnc4n3C(=O)C(CC(=O)c3ccc5ccccc5c3)=N4)n2C1=O)c1ccc2ccccc2c1	> 100	> 100 µM	> 100 µM	> 100	> 100 µM	> 100 µM	> 100	> 100	> 100	> 100	–	–	–	–	–	–	–	–	–
CN(C)C(=S)/N=c1\ss/c(=N\C(=S)N(C)C)n1-c1cccc(Cl)c1	> 100	> 100 µM	> 100 µM	–	> 100 µM	> 100 µM	> 100	> 100	> 100	> 100	–	–	–	–	–	–	–	–	–
CN1CCCC2[C@@H]3CCC4c5nonc5CC[C@]4(C)C3CC[C@@]21C (some centres undefined)	> 100	> 100 µM	> 100 µM	> 100	> 100 µM	> 100 µM	–	> 100	> 100	> 100	–	–	–	–	–	–	–	–	–
Cc1ccc(C2=CC(=O)c3ccccc3C2=O)n1-c1ccccc1	> 100	> 100 µM	> 100 µM	> 100	–	84.8 µM	> 100	> 100	–	> 100	–	–	–	–	–	–	–	–	–
C[C@@H]1C[C@@H]([C@H](O)CC2CC(=O)NC(=O)C2)C(=O)[C@@H](C)C1	–	4.35 µM and 1.42 µM	1.97 µM and 2.4 µM	3.48	4.7 µM and 3.5 µM	7.26 µM and 4.86 µM	1.94	11.1	–	1.23	0.197	0.488	0.272	0.235 µM	0.326	0.264	0.28	0.219	–
C1=CC(=P(c2ccccc2)(c2ccccc2)c2ccccc2)C=C1	26.4	–	23.7 µM	14.2	17.4 µM	–	75.1	26.7	–	56	–	–	–	–	–	–	–	–	–
O=c1c2cccnc2ncn1CCCN1CCCCC1	> 100	> 100 µM	> 100 µM	> 100	> 100 µM	> 100 µM	> 100	> 100	> 100	> 100	–	–	–	–	–	–	–	–	–
O=C(c1ccccc1)C1N=NN(Cc2ccccc2[N+](=O)[O-])C1C(=O)c1ccccc1 (centres undefined)	> 100	> 100 µM	> 100 µM	> 100	> 100 µM	> 100 µM	> 100	> 100	> 100	> 100	–	–	–	–	–	–	–	–	–
O=C1NC(O)n2c(=O)[nH]c(=O)n21 (centres undefined)	> 100	> 100 µM	> 100 µM	> 100	–	> 100 µM	> 100	> 100	> 100	> 100	–	–	–	–	–	–	–	–	–
c1cnc2c(c1)-n1cccc1C1(CCCCC1)NN2	> 100	> 100 µM	> 100 µM	–	> 100 µM	> 100 µM	> 100	–	> 100	> 100	–	–	–	–	–	–	–	–	–
COC1=CC(c2ccc[nH]2)=N/C1=C\c1[nH]c(C)c(C(=O)CCCCCCCCC(=O)O[C@H]2CC[C@H]3C4CCc5cc(O)ccc5C4CC[C@]23C)c1C (some centres undefined)	–	> 22.1 µM	> 50 µM	–	> 36.3 µM	> 11.4 µM	> 50	–	> 20.2	> 50	0.159	0.411	0.21	2.49 µM	2.99	0.429	0.209	0.197	> 33.9
CCOc1ccc(NC(=O)/C(CC(=O)c2c[n+](=O)c3ccccc3n2[O-])=N\OCCCc2ccccc2)cc1	> 100	> 100 µM	> 100 µM	> 100	> 100 µM	> 100 µM	> 100	> 100	> 100	> 100	–	–	–	–	–	–	–	–	–
COc1ccc2[nH]c(C(=O)N3CCN(C(=O)OCc4ccc5c(Cl)cc(Cl)c(O)c5n4)CC3)cc2c1	–	1.35 µM	2.48 µM	–	3.02 µM	2.56 µM	3.02	–	1.05	1.61	0.295	1.87	1.08	1.59 µM	1.18	1.49	0.232	0.401	6.07
c1ccc2c(c1)[nH]c1c2nc2ccccn21	> 100	> 100 µM	> 100 µM	> 100	> 100 µM	> 100 µM	> 100	> 100	> 100	> 100	–	–	–	27.8 µM and > 100 µM	–	–	–	–	–
O=C1c2cccc3cccc(c23)C(=O)N1CCCCCN1CCN(CCN=c2cc3n(-c4ccc(Cl)cc4)c4ccccc4nc-3cc2Nc2ccc(Cl)cc2)CC1	–	17.5 µM	> 50 µM	–	> 50 µM	> 50 µM	> 50	–	25.4	> 50	7.79	36.8	9.13	20.8 µM	35.6	23.1	7.54	15.3	> 50
